What all share (assay): relative viability (nuclei count vs DMSO), 5 days (fraction); higher = more cells survive
Compound in the assay “Doramapimod + Bortezomib”: Cc1ccc(-n2nc(C(C)(C)C)cc2NC(=O)Nc2ccc(OCCN3CCOCC3)c3ccccc23)cc1 [Doramapimod] + CC(C)C[C@H](NC(=O)[C@H](Cc1ccccc1)NC(=O)c1cnccn1)B(O)O [Bortezomib] (partner 0.002 µM)
The method, boiled down: (§1)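 The day after seeding in 1536-well plates, lung cancer cell lines were treated by pin tool with a single drug, or with a fixed anchor-drug dose together with five library-drug doses (not always all listed) in √10 steps. After 5 days, a combined fix-and-stain solution (final 0.05% Triton X-100, 1% formaldehyde, 1 ug/ml Hoechst) was added. Nuclei counted on 4× images gave relative viability as treated counts over vehicle counts, reported as the median of duplicate plates.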

Compound in the assay “IPA-3 + AZD7762”: C1=CC=C2C(=C1)C=CC(=C2SSC3=C(C=CC4=CC=CC=C43)O)O [IPA-3] + NC(=O)Nc1cc(-c2cccc(F)c2)sc1C(=O)N[C@H]1CCCNC1 [AZD7762] (partner 0.2 µM)
The procedure, abridged:
as §1

Compound in the assay “IPA-3 + Vorinostat”: C1=CC=C2C(=C1)C=CC(=C2SSC3=C(C=CC4=CC=CC=C43)O)O [IPA-3] + O=C(CCCCCCC(=O)Nc1ccccc1)NO [Vorinostat] (partner 1 µM)
The procedure, abridged:
as §1

Compound in the assay “Doramapimod + Alpelisib”: Cc1ccc(-n2nc(C(C)(C)C)cc2NC(=O)Nc2ccc(OCCN3CCOCC3)c3ccccc23)cc1 [Doramapimod] + Cc1nc(NC(=O)N2CCC[C@H]2C(N)=O)sc1-c1ccnc(C(C)(C)C(F)(F)F)c1 [Alpelisib] (partner 2 µM)
The method, boiled down:
as §1

For the cell line NCI-H2405, the relative viability in the assay with Doramapimod + Bortezomib (first compound 0.02 µM) was 0.98; with Doramapimod + Bortezomib (first compound 0.06325 µM) it was 1.03; in the assay with Doramapimod + Bortezomib (first compound 0.2 µM), 0.984; in the assay with Doramapimod + Bortezomib (first compound 0.6325 µM), 0.712; with Doramapimod + Bortezomib (first compound 2 µM) it was 0.961; with IPA-3 + AZD7762 (first compound 0.2 µM), 0.89. The relative viability in the assay with IPA-3 + AZD7762 (first compound 0.6325 µM) was found to be 0.806; with IPA-3 + AZD7762 (first compound 2 µM), 0.847; with IPA-3 + AZD7762 (first compound 6.325 µM), 0.771; with IPA-3 + AZD7762 (first compound 20 µM) it was 0.73; with IPA-3 + Vorinostat (first compound 0.2 µM), 1.17; with IPA-3 + Vorinostat (first compound 0.6325 µM), 1.11. The relative viability with IPA-3 + Vorinostat (first compound 2 µM) is 1.11; with IPA-3 + Vorinostat (first compound 6.325 µM), 0.922; with IPA-3 + Vorinostat (first compound 20 µM), 1.04; in the assay with Doramapimod + Alpelisib (first compound 0.02 µM) it was 0.82; with Doramapimod + Alpelisib (first compound 0.06325 µM), 0.718; with Doramapimod + Alpelisib (first compound 0.2 µM) it was 0.715. Besides, the relative viability with Doramapimod + Alpelisib (first compound 0.6325 µM) is 1.18; in the assay with Doramapimod + Alpelisib (first compound 2 µM), 0.678.

Take NCI-H3122: the relative viability with Doramapimod + Bortezomib (first compound 0.02 µM) turned out to be 1.04; with Doramapimod + Bortezomib (first compound 0.06325 µM) it was 0.983; in the assay with Doramapimod + Bortezomib (first compound 0.2 µM), 0.949; with Doramapimod + Bortezomib (first compound 0.6325 µM), 1.07; with Doramapimod + Bortezomib (first compound 2 µM), 0.91; with IPA-3 + AZD7762 (first compound 0.2 µM) it was 1.02. The relative viability in the assay with IPA-3 + AZD7762 (first compound 0.6325 µM) was determined as 1.01; with IPA-3 + AZD7762 (first compound 2 µM) it was 0.995; with IPA-3 + AZD7762 (first compound 6.325 µM) it was 1.11; with IPA-3 + AZD7762 (first compound 20 µM), 0.999; in the assay with IPA-3 + Vorinostat (first compound 0.2 µM), 1.06; with IPA-3 + Vorinostat (first compound 0.6325 µM) it was 1.2. For the same cell line, the relative viability with IPA-3 + Vorinostat (first compound 2 µM) was 1.03; with IPA-3 + Vorinostat (first compound 6.325 µM), 1.46; with IPA-3 + Vorinostat (first compound 20 µM) it was 1.14; with Doramapimod + Alpelisib (first compound 0.02 µM), 0.952; with Doramapimod + Alpelisib (first compound 0.06325 µM), 0.831; with Doramapimod + Alpelisib (first compound 0.2 µM), 0.756. Besides, the relative viability was 0.776 in the assay with Doramapimod + Alpelisib (first compound 0.6325 µM) and 0.863 with Doramapimod + Alpelisib (first compound 2 µM).

Take PC-3 [JPC-3]: the relative viability in the assay with Doramapimod + Bortezomib (first compound 0.02 µM) is 0.909; in the assay with Doramapimod + Bortezomib (first compound 0.06325 µM) it was 0.926; in the assay with Doramapimod + Bortezomib (first compound 0.2 µM), 0.832; in the assay with Doramapimod + Bortezomib (first compound 0.6325 µM) it was 0.939; with Doramapimod + Bortezomib (first compound 2 µM), 0.943; in the assay with IPA-3 + AZD7762 (first compound 0.2 µM), 0.926. Also, the relative viability with IPA-3 + AZD7762 (first compound 0.6325 µM) is 1.34; in the assay with IPA-3 + AZD7762 (first compound 2 µM), 0.916; with IPA-3 + AZD7762 (first compound 6.325 µM) it was 0.741; in the assay with IPA-3 + AZD7762 (first compound 20 µM) it was 0.807; in the assay with IPA-3 + Vorinostat (first compound 0.2 µM), 0.821; with IPA-3 + Vorinostat (first compound 0.6325 µM) it was 0.816. Moreover, the relative viability in the assay with IPA-3 + Vorinostat (first compound 2 µM) was determined as 0.896; in the assay with IPA-3 + Vorinostat (first compound 6.325 µM) it was 0.73; with IPA-3 + Vorinostat (first compound 20 µM) it was 0.767; with Doramapimod + Alpelisib (first compound 0.02 µM) it was 1.15; in the assay with Doramapimod + Alpelisib (first compound 0.06325 µM), 1.01; with Doramapimod + Alpelisib (first compound 0.2 µM), 1.09. Besides, the relative viability in the assay with Doramapimod + Alpelisib (first compound 0.6325 µM) was 1.11; in the assay with Doramapimod + Alpelisib (first compound 2 µM), 0.978.

For the cell line PC-14, the relative viability in the assay with Doramapimod + Bortezomib (first compound 0.02 µM) turned out to be 0.968; with Doramapimod + Bortezomib (first compound 0.06325 µM), 0.845; with Doramapimod + Bortezomib (first compound 0.2 µM) it was 0.778; with Doramapimod + Bortezomib (first compound 0.6325 µM), 1.01; with Doramapimod + Bortezomib (first compound 2 µM), 0.81; in the assay with IPA-3 + AZD7762 (first compound 0.2 µM) it was 0.402. Moreover, the relative viability was determined as 0.362 with IPA-3 + AZD7762 (first compound 0.6325 µM); 0.431 with IPA-3 + AZD7762 (first compound 2 µM); 0.328 with IPA-3 + AZD7762 (first compound 6.325 µM); 0.407 with IPA-3 + AZD7762 (first compound 20 µM); 0.952 with IPA-3 + Vorinostat (first compound 0.2 µM); 0.759 in the assay with IPA-3 + Vorinostat (first compound 0.6325 µM). Also, the relative viability was 0.616 with IPA-3 + Vorinostat (first compound 2 µM); 0.68 with IPA-3 + Vorinostat (first compound 6.325 µM); 0.747 in the assay with IPA-3 + Vorinostat (first compound 20 µM); 1.01 in the assay with Doramapimod + Alpelisib (first compound 0.02 µM); 1.06 with Doramapimod + Alpelisib (first compound 0.06325 µM); 0.892 with Doramapimod + Alpelisib (first compound 0.2 µM). For the same cell line, the relative viability with Doramapimod + Alpelisib (first compound 0.6325 µM) is 0.995; in the assay with Doramapimod + Alpelisib (first compound 2 µM), 0.89.

In the case of RERF-LC-KJ, the relative viability came out at 1.19 with Doramapimod + Bortezomib (first compound 0.02 µM); 1.05 in the assay with Doramapimod + Bortezomib (first compound 0.06325 µM); 1.29 with Doramapimod + Bortezomib (first compound 0.2 µM); 1.07 in the assay with Doramapimod + Bortezomib (first compound 0.6325 µM); 1.04 with Doramapimod + Bortezomib (first compound 2 µM); 1.08 with IPA-3 + AZD7762 (first compound 0.2 µM). Also, the relative viability stood at 0.955 with IPA-3 + AZD7762 (first compound 0.6325 µM); 1.01 with IPA-3 + AZD7762 (first compound 2 µM); 0.921 with IPA-3 + AZD7762 (first compound 6.325 µM); 1.15 with IPA-3 + AZD7762 (first compound 20 µM); 0.829 with IPA-3 + Vorinostat (first compound 0.2 µM); 0.729 with IPA-3 + Vorinostat (first compound 0.6325 µM). Further, the relative viability with IPA-3 + Vorinostat (first compound 2 µM) amounted to 0.726; in the assay with IPA-3 + Vorinostat (first compound 6.325 µM) it was 0.653; with IPA-3 + Vorinostat (first compound 20 µM) it was 0.696; with Doramapimod + Alpelisib (first compound 0.02 µM) it was 0.857; with Doramapimod + Alpelisib (first compound 0.06325 µM), 0.865; in the assay with Doramapimod + Alpelisib (first compound 0.2 µM), 0.765. Moreover, the relative viability is 1.01 with Doramapimod + Alpelisib (first compound 0.6325 µM) and 0.867 with Doramapimod + Alpelisib (first compound 2 µM).
